The record followed here is ChEMBL document CHEMBL4364250, “Improvement of Asparagine Ethylenediamines as Anti-malarial Plasmodium-Selective Proteasome Inhibitors” (J Med Chem, 2019).

In general, IC50 refers to the midpoint of a concentration-inhibition curve. Broadly, the EC50 is the concentration that produces a half-maximal response. Low values mean higher potency in that assay, high ones lower potency in that assay.

Calls of active or inactive are those of the source. The calls are words filed in the database; no cut-off is given here.

Series [1] can be described thus: Permeability of the compound at pH 7.4 by PAMPA. Type of series: ADME. To be noted: read-out: permeability. (The PAMPA barrier holds no transporters, so it reflects passive diffusion.)
Series [2] concerns the target T1, Proteasome Macropain subunit MB1 (Homo sapiens, UniProt P28074).
T1 sequence (P28074 whole entry): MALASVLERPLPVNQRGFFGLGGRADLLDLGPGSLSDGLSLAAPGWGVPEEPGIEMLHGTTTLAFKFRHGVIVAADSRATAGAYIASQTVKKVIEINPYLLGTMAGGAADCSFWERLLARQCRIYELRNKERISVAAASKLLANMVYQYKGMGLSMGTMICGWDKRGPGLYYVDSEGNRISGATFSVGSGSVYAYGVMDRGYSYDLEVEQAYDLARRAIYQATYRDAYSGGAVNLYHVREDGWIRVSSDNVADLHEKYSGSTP
Kind of series: Inhibition of human beta5 20S constitutive proteasome using suc-LLVY-AMC as substrate. To be noted: for inhibition (INH): human.

The target in series [3] is T2, Proteasome subunit beta type-8 (Homo sapiens, UniProt P28062).
T2 sequence (P28062 whole entry): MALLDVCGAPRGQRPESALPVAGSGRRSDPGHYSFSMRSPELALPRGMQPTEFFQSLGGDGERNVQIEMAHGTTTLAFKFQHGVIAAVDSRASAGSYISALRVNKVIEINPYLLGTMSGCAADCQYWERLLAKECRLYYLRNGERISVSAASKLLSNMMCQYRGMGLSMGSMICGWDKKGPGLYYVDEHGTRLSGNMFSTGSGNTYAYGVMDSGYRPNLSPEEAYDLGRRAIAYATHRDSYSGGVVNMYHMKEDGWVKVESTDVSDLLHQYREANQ
In words: Inhibition of human beta5 20S immunoproteasome using Ac-ANW-AMC as substrate. To be noted: for inhibition (INH): human.

For the next series, the system named is HepG2. Kind of series: Cytotoxicity against human HepG2 cells. Type of series: cell-based.
Series [4] has as its system Plasmodium falciparum. In words: Inhibition of MV151 binding to Plasmodium falciparum 20S proteasome beta1 subunit preincubated for 1 hr followed by MV151 addition and measured after 1 hr by fluorescence assay.
Series [5] relates to beta5 subunit of human 20S immunoproteasome. Kind of series: Selectivity ratio of IC50 for human beta5 20S immunoproteasome to IC50 for Plasmodium falciparum 20S proteasome beta5 subunit. The format is toxicity. To be noted: read-out: Ratio IC50.
A short description of series [6]: (§1) Inhibition of Plasmodium falciparum 20S proteasome beta5 subunit using suc-LLVY-AMC as substrate in presence of beta2 inhibitor WLW-VS.
In series [7] the test system is beta5 subunit of human 20S constitutive proteasome. In words: Selectivity ratio of IC50 for human beta5 20S constitutive proteasome to IC50 for Plasmodium falciparum 20S proteasome beta5 subunit. Type of series: toxicity. To be noted: read-out: Ratio IC50.
Series [8] deals with Plasmodium falciparum. In words: Antimalarial activity against erythrocytic stage of Plasmodium falciparum 3D7 measured after 72 hrs by SYBR green dye based fluorescence assay. Type of series: functional, organism-based. To be noted: 3D7, 72 h.
A further series deals with Karpas-1106P. In words: Cytotoxicity against human KARPAS1106P cells. The format is cell-based.
Series [9] in a line: Clearance in rat liver microsomes. The format is ADME, Microsome. To be noted: read-out: CLH. On the technique in general: Microsomes from liver hold many membrane-bound enzymes, among them those of drug oxidation.
Series [10] relates to Plasmodium falciparum. Kind of series: Inhibition of MV151 binding to Plasmodium falciparum 20S proteasome beta2 subunit preincubated for 1 hr followed by MV151 addition and measured after 1 hr by fluorescence assay.
The nature of series [11]: Clearance in mouse liver microsomes. The format is ADME, Microsome. To be noted: read-out: CLH.
A short description of series [12]: Clearance in human liver microsomes. Type of series: ADME, Microsome. The conditions noted are these: read-out: CLH.
The subject of series [13] is Plasmodium falciparum. The description is as §1.
Series [14] deals with Plasmodium falciparum. Kind of series: Antimalarial activity against erythrocytic stage of Plasmodium falciparum Dd2 harboring 20S beta5 proteasome A49S mutant measured after 72 hrs by SYBR green dye based fluorescence assay. The format is functional, organism-based. The conditions noted are these: Dd2, 72 h.
Series [15] concerns Plasmodium falciparum. Kind of series: Resistance index, ratio of EC50 for erythrocytic stage of Plasmodium falciparum Dd2 harboring 20S beta5 proteasome A49S mutant to EC50 erythrocytic stage of Plasmodium falciparum Dd2. The format is functional.
Series [16] has as its system Plasmodium falciparum. Kind of series: Resistance index, ratio of EC50 for erythrocytic stage of Plasmodium falciparum Dd2 harboring 20S beta6 proteasome A117D mutant to EC50 erythrocytic stage of Plasmodium falciparum Dd2.
Series [17] relates to Plasmodium falciparum. In words: Antimalarial activity against erythrocytic stage of Plasmodium falciparum Dd2 measured after 72 hrs by SYBR green dye based fluorescence assay. The format is functional, organism-based. The conditions noted are these: Dd2, 72 h.
In series [18] the test system is Plasmodium falciparum. In words: Inhibition of MV151 binding to Plasmodium falciparum 20S proteasome beta5 subunit preincubated for 1 hr followed by MV151 addition and measured after 1 hr by fluorescence assay.
Series [19] concerns Plasmodium falciparum. In words: Antimalarial activity against erythrocytic stage of Plasmodium falciparum Dd2 harboring 20S beta2 proteasome A117D mutant measured after 72 hrs by SYBR green dye based fluorescence assay. The format is functional, organism-based. The conditions noted are these: Dd2, 72 h.
In series [20] the test system is Plasmodium falciparum. In words: microbe, parasite or virus in culture. The conditions noted are these: 72 h.
Description: Antimalarial activity against Plasmodium falciparum clinical isolate measured after 72 hrs by SYBR green dye based fluorescence assay
Series [21] relates to Plasmodium falciparum. Kind of series: Inhibition of MV151 binding to Plasmodium falciparum 20S proteasome beta5 subunit A49S mutant at 1.2 to 33.3 uM preincubated for 1 hr followed by MV151 addition and measured after 1 hr by fluorescence assay.
For series [22], the system named is Plasmodium falciparum. In words: Antimalarial activity against erythrocytic stage of Plasmodium falciparum Dd2 measured after 72 hrs in presence of 20S beta2 inhibitor WLW-VS by SYBR green dye based fluorescence assay. The format is functional, organism-based.

For `Cc1ccc(S(=O)(=O)N[C@@H](CC(=O)NC(C)(C)C)C(=O)NCCNC(=O)c2ccccc2F)cc1`, in series [1], the Papp turned out to be 10.5 ×10⁻⁶ cm/s. Moreover, the values for the IC50 in series [2], in series [3] and in series [6] were 1140 nM, 169 nM and 32 nM, respectively. Besides, the values for the EC50 with HepG2, in the series on Plasmodium falciparum [8] and in the series on Karpas-1106P were more than 11 µM, 7.5 nM and more than 11.1 µM, respectively. For the same molecule, the inhibition result in the series on Plasmodium falciparum [4] and with Plasmodium falciparum [10] was “inactive” in each case. Also, the selectivity ratio in series [5] stood at 5.3; in [7] it was 36. The values for the microsomal CLint in series [9], in series [11] and in series [12] were 124 µL/min/mg, 141 µL/min/mg and 141 µL/min/mg, respectively.

With `Cc1ccc(S(=O)(=O)N[C@@H](CC(=O)NC(C)(C)C)C(=O)NCCNC(=O)c2cc(C)ccc2F)cc1`, the results for the IC50 in [2], in [3] and in series [6] were 12000 nM, 384 nM and 20.7 nM, respectively. The “inhibition (INH)” value in series [2] and in series [3] was “Dose-dependent effect” in each case. Also, the EC50 in the series with HepG2 is more than 11 µM; in the series with Plasmodium falciparum [8], 13.9 nM; in the series on Karpas-1106P, more than 11.1 µM. The selectivity ratio in [5] stood at 19; in series [7], 581. The inhibition entry with Plasmodium falciparum [13] is “Dose-dependent effect”.

As to `C#Cc1cccc(C(=O)NCCNC(=O)[C@H](CC(=O)NC(C)(C)C)NS(=O)(=O)c2ccc(C)cc2)c1`, the half-maximal effective concentration (EC50) is 502 nM in the series on Plasmodium falciparum [14]; more than 11 µM with HepG2; 3.3 nM in the series with Plasmodium falciparum [17]; 3.1 nM with Plasmodium falciparum [8]; more than 11.1 µM with Karpas-1106P; 61.9 nM with Plasmodium falciparum [19]. The same molecule had an EC50 in the series with Plasmodium falciparum [20] of 7.1 nM. Also, the Papp in series [1] is 20.3 ×10⁻⁶ cm/s. In addition, the results for the “Ratio EC50” value with Plasmodium falciparum [15] and in the series with Plasmodium falciparum [16] were 152 and 19, respectively. The results for the IC50 in series [2], in [3] and in series [6] were 430 nM, 112 nM and 4.7 nM, respectively. Further, the “inhibition (INH)” value in series [2] and in series [3] was “Dose-dependent effect” in each case. Besides, the selectivity ratio in [5] is 24; in [7] it was 91. The inhibition result in the series with Plasmodium falciparum [13] and in the series on Plasmodium falciparum [18] was “Dose-dependent effect” throughout. The microsomal CLint was determined as 61 µL/min/mg in series [9], 97 µL/min/mg in series [11] and 61 µL/min/mg in series [12].

Turning to `Cc1ccc(S(=O)(=O)N[C@@H](CC(=O)NC(C)(C)C)C(=O)NCCNC(=O)c2ccccc2)cc1`, the EC50 is 135 nM with Plasmodium falciparum [14]; more than 11 µM with HepG2; 7.7 nM in the series on Plasmodium falciparum [17]; 8.4 nM in the series with Plasmodium falciparum [8]; more than 11.1 µM in the series with Karpas-1106P; 111 nM in the series on Plasmodium falciparum [19]. In addition, in series [1], the Papp worked out at 13.7 ×10⁻⁶ cm/s. In addition, the “Ratio EC50” value amounted to 17 with Plasmodium falciparum [15] and 14 in the series with Plasmodium falciparum [16]. The IC50 in [2] worked out at 1410 nM; in [3], 100 nM; in series [6], 20.8 nM. Also, the selectivity ratio was found to be 4.8 in [5] and 68 in series [7]. Further, in the series with Plasmodium falciparum [21], the inhibition entry was “Active”. Also, the microsomal CLint came to 66 µL/min/mg in [9], 64 µL/min/mg in series [11] and 122 µL/min/mg in [12]. In addition, the result with Plasmodium falciparum [22] was Active.

For the molecule `Cc1ccc(S(=O)(=O)N[C@@H](CC(=O)NC(C)(C)C)C(=O)NCCNC(=O)c2ccc(F)cc2)cc1`, the IC50 in series [2] is 6700 nM; in series [3], 179 nM; in [6] it was 121 nM. Also, the EC50 with HepG2 was more than 11 µM; with Plasmodium falciparum [8] it was 50.9 nM; with Karpas-1106P it was more than 11.1 µM. Also, the selectivity ratio in series [5] came to 1.5; in series [7], 55. For the same molecule, the microsomal CLint in series [9] turned out to be 81 µL/min/mg; in [11] it was 49 µL/min/mg; in [12], 149 µL/min/mg.

`Cc1ccc(S(=O)(=O)N[C@@H](CC(=O)NC(C)(C)C)C(=O)NCCNC(=O)c2cc(-c3ccccc3F)ccc2F)cc1`: the IC50 in [2] turned out to be 110 nM; in series [3], 4 nM. In addition, the inhibition entry with Plasmodium falciparum [4] and with Plasmodium falciparum [10] was “inactive” throughout. The same molecule came in with an EC50 in the series with Plasmodium falciparum [8] of 1.6 nM.

Take `CC(C)C[C@H](NC(=O)[C@H](Cc1ccccc1)NC(=O)c1cnccn1)B(O)O` [BORTEZOMIB]: the EC50 in the series with Plasmodium falciparum [14] was 1020 nM; in the series with Plasmodium falciparum [17], 419 nM; in the series on Plasmodium falciparum [19], 106 nM. Further, the “Ratio EC50” value in the series with Plasmodium falciparum [15] amounted to 2.4; in the series on Plasmodium falciparum [16], 0.25.

Take `COc1cccc(C(=O)NCCNC(=O)[C@H](CC(=O)NC(C)(C)C)NS(=O)(=O)c2ccc(C)cc2)c1`: the EC50 with Plasmodium falciparum [14] was 252 nM; in the series with HepG2 it was more than 11 µM; in the series with Plasmodium falciparum [17] it was 2.5 nM; in the series with Plasmodium falciparum [8] it was 2.3 nM; with Karpas-1106P it was more than 11.1 µM; with Plasmodium falciparum [19], 63.4 nM. Besides, in series [1], the Papp worked out at 15.9 ×10⁻⁶ cm/s. For the same molecule, the “Ratio EC50” value came to 101 with Plasmodium falciparum [15] and 25 with Plasmodium falciparum [16]. Moreover, the IC50 was found to be 506 nM in series [2], 38 nM in [3] and 8.9 nM in series [6]. Further, the results for the selectivity ratio in series [5] and in [7] were 4.3 and 57, respectively. For the same molecule, the microsomal CLint in [9] turned out to be 115 µL/min/mg; in series [11], 142 µL/min/mg; in series [12], 202 µL/min/mg.

Take `CC(C)(C)NC(=O)C[C@H](NC(=O)CCc1ccccc1)C(=O)NCCNC(=O)c1cccc(-c2ccccc2)c1`: the values for the EC50 in the series with Plasmodium falciparum [14], in the series on Plasmodium falciparum [17] and with Plasmodium falciparum [19] were 1350 nM, 2.5 nM and 326 nM, respectively. Also, the “Ratio EC50” value is listed as 541 with Plasmodium falciparum [15] and 130 in the series on Plasmodium falciparum [16].
